Data published in PubChem BioAssay AID1963833 (Molecular Pharmacology Branch, DTP, NCI, 2024).

Tested on: 883617-216-R-J1-PDC complex spheroid viability
Assay: Anticancer human tumor 883617-216-R-J1-PDC patient-derived bladder carcinoma cell line growth inhibition [POLQ]
Details: for IC50: curve of first compound; for viability, T/C: stronger effect = lower value
Summary of the method: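 Three-cell-type spheroids modelling solid tumor plus stroma served as the readout system; POL inhibitors were tested individually and in combination, concentration ranges set by clinical Cmax where known.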

[1] = second compound 0.0316 µM, first compound 0.0316 µM
[2] = second compound 0.0316 µM, first compound 0.1 µM
[3] = second compound 0.0316 µM, first compound 0.316 µM
[4] = second compound 0.0316 µM, first compound 1 µM
[5] = second compound 0.0316 µM, first compound 3.16 µM
[6] = second compound 0.0316 µM, first compound 10 µM
[7] = second compound 0.1 µM, first compound 0.0316 µM
[8] = second compound 0.1 µM, first compound 0.1 µM
[9] = second compound 0.1 µM, first compound 0.316 µM
[10] = second compound 0.1 µM, first compound 1 µM
[11] = second compound 0.1 µM, first compound 3.16 µM
[12] = second compound 0.1 µM, first compound 10 µM
[13] = second compound 0.316 µM, first compound 0.0316 µM
[14] = second compound 0.316 µM, first compound 0.1 µM
[15] = second compound 0.316 µM, first compound 0.316 µM
[16] = second compound 0.316 µM, first compound 1 µM
[17] = second compound 0.316 µM, first compound 3.16 µM
[18] = second compound 0.316 µM, first compound 10 µM
[19] = second compound 1 µM, first compound 0.0316 µM
[20] = second compound 1 µM, first compound 0.1 µM
[21] = second compound 1 µM, first compound 0.316 µM
[22] = second compound 1 µM, first compound 1 µM
[23] = second compound 1 µM, first compound 3.16 µM
[24] = second compound 1 µM, first compound 10 µM
[25] = second compound 3.16 µM, first compound 0.0316 µM
[26] = second compound 3.16 µM, first compound 0.1 µM
[27] = second compound 3.16 µM, first compound 0.316 µM
[28] = second compound 3.16 µM, first compound 1 µM
[29] = second compound 3.16 µM, first compound 3.16 µM
[30] = second compound 3.16 µM, first compound 10 µM
[31] = second compound 10 µM, first compound 0.0316 µM
[32] = second compound 10 µM, first compound 0.1 µM
[33] = second compound 10 µM, first compound 0.316 µM
[34] = second compound 10 µM, first compound 1 µM
[35] = second compound 10 µM, first compound 3.16 µM
[36] = second compound 10 µM, first compound 10 µM
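Further: spheroids exposed to compounds for seven days before readout.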
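Wherever viability, T/C is given: 100% = DMSO vehicle control viability.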

`C=CC(=O)N1CCN(c2nc(=O)n(-c3c(C)ccnc3C(C)C)c3nc(-c4c(O)cccc4F)c(F)cc23)C(C)C1` (stereo not drawn) + Cc1cccc(N(C)C(=O)C2C(O)CCN2c2nc(C)cc(C(F)(F)F)c2C#N)c1 was tested, and the IC50 (second compound 0.0316 µM) was > 10000 nM, the IC50 (second compound 0.1 µM) was > 10000 nM and the IC50 (second compound 0.316 µM) was > 10000 nM. The IC50 (second compound 1 µM) was > 10000 nM, the IC50 (second compound 3.16 µM) was > 10000 nM and the IC50 (second compound 10 µM) was > 10000 nM. It also gave a viability, T/C [1] of 72.4%, a viability, T/C [2] of 66.9% and a viability, T/C [3] of 75.6%. It also gave a viability, T/C [4] of 84.9%, a viability, T/C [5] of 84.2% and a viability, T/C [6] of 73.4%. The viability, T/C [7] was 74.2%, the viability, T/C [8] was 79.3% and the viability, T/C [9] was 75.6%. It also gave a viability, T/C [10] of 80.8%, a viability, T/C [11] of 79.2% and a viability, T/C [12] of 81.3%. It also gave a viability, T/C [13] of 80.2%, a viability, T/C [14] of 62% and a viability, T/C [15] of 72%. The viability, T/C [16] was 82.8%, the viability, T/C [17] was 85.1% and the viability, T/C [18] was 87.2%. It also gave a viability, T/C [19] of 71.4%, a viability, T/C [20] of 66.2% and a viability, T/C [21] of 67.3%. The viability, T/C [22] was 83.2%, the viability, T/C [23] was 90.6% and the viability, T/C [24] was 79.9%. For the same compound, the viability, T/C [25] was 65%, the viability, T/C [26] was 59.8% and the viability, T/C [27] was 68.6%. For the same compound, the viability, T/C [28] was 76.1%, the viability, T/C [29] was 100% and the viability, T/C [30] was 78.3%. It also gave a viability, T/C [31] of 78.3%, a viability, T/C [32] of 77.3% and a viability, T/C [33] of 84%. It also gave a viability, T/C [34] of 86.6%, a viability, T/C [35] of 101% and a viability, T/C [36] of 82.7%.

In the case of `CC(C)n1c(=O)n(C)c2cnc3cc(F)c(-c4ccc(OCCCN5CCCCC5)nc4)cc3c21` + Cc1cccc(N(C)C(=O)C2C(O)CCN2c2nc(C)cc(C(F)(F)F)c2C#N)c1, the IC50 (second compound 0.0316 µM) is reported as > 10000 nM, the IC50 (second compound 0.1 µM) is reported as > 10000 nM and the IC50 (second compound 0.316 µM) is reported as > 10000 nM. For the same compound, the IC50 (second compound 1 µM) was > 10000 nM, the IC50 (second compound 3.16 µM) was > 10000 nM and the IC50 (second compound 10 µM) was > 10000 nM. It also gave a viability, T/C [1] of 105%, a viability, T/C [2] of 96.2% and a viability, T/C [3] of 108%. It also gave a viability, T/C [4] of 90%, a viability, T/C [5] of 83.9% and a viability, T/C [6] of 59.9%. For the same compound, the viability, T/C [7] was 108%, the viability, T/C [8] was 111% and the viability, T/C [9] was 105%. For the same compound, the viability, T/C [10] was 98.7%, the viability, T/C [11] was 91.5% and the viability, T/C [12] was 62%. It also gave a viability, T/C [13] of 107%, a viability, T/C [14] of 93.6% and a viability, T/C [15] of 97.2%. For the same compound, the viability, T/C [16] was 110%, the viability, T/C [17] was 92.8% and the viability, T/C [18] was 59%. The viability, T/C [19] was 95.9%, the viability, T/C [20] was 108% and the viability, T/C [21] was 96.1%. It also gave a viability, T/C [22] of 98.7%, a viability, T/C [23] of 96.6% and a viability, T/C [24] of 59.5%. It also gave a viability, T/C [25] of 100%, a viability, T/C [26] of 107% and a viability, T/C [27] of 105%. It also gave a viability, T/C [28] of 108%, a viability, T/C [29] of 95.6% and a viability, T/C [30] of 65.3%. For the same compound, the viability, T/C [31] was 108%, the viability, T/C [32] was 112% and the viability, T/C [33] was 114%. It also gave a viability, T/C [34] of 98.3%, a viability, T/C [35] of 105% and a viability, T/C [36] of 63.4%.

Work on `CC1COCCN1c1cc(-c2ccnn2C)c2ccnc(-c3ccn[nH]3)c2n1` (stereo not drawn) + Cc1cccc(N(C)C(=O)C2C(O)CCN2c2nc(C)cc(C(F)(F)F)c2C#N)c1 yielded an IC50 (second compound 0.0316 µM) of 205 nM, an IC50 (second compound 0.1 µM) of 291 nM and an IC50 (second compound 0.316 µM) of 273 nM. It also gave an IC50 (second compound 1 µM) of 257 nM, an IC50 (second compound 3.16 µM) of 204 nM and an IC50 (second compound 10 µM) of 334 nM. It also gave a viability, T/C [1] of 89.1%, a viability, T/C [2] of 61.4% and a viability, T/C [3] of 43.2%. For the same compound, the viability, T/C [4] was 34%, the viability, T/C [5] was 31.7% and the viability, T/C [6] was 29.4%. The viability, T/C [7] was 72.7%, the viability, T/C [8] was 59.1% and the viability, T/C [9] was 53.2%. For the same compound, the viability, T/C [10] was 35.7%, the viability, T/C [11] was 29.9% and the viability, T/C [12] was 34.7%. The viability, T/C [13] was 83.6%, the viability, T/C [14] was 63.1% and the viability, T/C [15] was 48%. It also gave a viability, T/C [16] of 39.3%, a viability, T/C [17] of 32.9% and a viability, T/C [18] of 30.9%. For the same compound, the viability, T/C [19] was 83.2%, the viability, T/C [20] was 66.1% and the viability, T/C [21] was 48.1%. For the same compound, the viability, T/C [22] was 32.1%, the viability, T/C [23] was 32.6% and the viability, T/C [24] was 30.3%. For the same compound, the viability, T/C [25] was 72%, the viability, T/C [26] was 60.6% and the viability, T/C [27] was 43.9%. For the same compound, the viability, T/C [28] was 32.9%, the viability, T/C [29] was 33% and the viability, T/C [30] was 30.7%. The viability, T/C [31] was 96.7%, the viability, T/C [32] was 60% and the viability, T/C [33] was 58.1%. For the same compound, the viability, T/C [34] was 37.9%, the viability, T/C [35] was 38.9% and the viability, T/C [36] was 28.2%.

`CC1COCCN1c1cc(C2(O)CC3CCC(C2)O3)c2cnn(-c3ccn[nH]3)c2n1` (stereo not drawn) + Cc1cccc(N(C)C(=O)C2C(O)CCN2c2nc(C)cc(C(F)(F)F)c2C#N)c1 was tested, and the IC50 (second compound 0.0316 µM) was 156 nM, the IC50 (second compound 0.1 µM) was 173 nM and the IC50 (second compound 0.316 µM) was 188 nM. For the same compound, the IC50 (second compound 1 µM) was 125 nM, the IC50 (second compound 3.16 µM) was 173 nM and the IC50 (second compound 10 µM) was 215 nM. For the same compound, the viability, T/C [1] was 76.6%, the viability, T/C [2] was 58.4% and the viability, T/C [3] was 35.7%. The viability, T/C [4] was 33.7%, the viability, T/C [5] was 23.9% and the viability, T/C [6] was 23.9%. For the same compound, the viability, T/C [7] was 80.4%, the viability, T/C [8] was 54.9% and the viability, T/C [9] was 41.2%. For the same compound, the viability, T/C [10] was 37.9%, the viability, T/C [11] was 26.8% and the viability, T/C [12] was 23.2%. For the same compound, the viability, T/C [13] was 71%, the viability, T/C [14] was 61.2% and the viability, T/C [15] was 38.6%. It also gave a viability, T/C [16] of 35.8%, a viability, T/C [17] of 24.2% and a viability, T/C [18] of 24%. It also gave a viability, T/C [19] of 78.6%, a viability, T/C [20] of 48.8% and a viability, T/C [21] of 41.7%. The viability, T/C [22] was 33%, the viability, T/C [23] was 27.9% and the viability, T/C [24] was 23.2%. For the same compound, the viability, T/C [25] was 79.3%, the viability, T/C [26] was 54.9% and the viability, T/C [27] was 44.9%. It also gave a viability, T/C [28] of 31.6%, a viability, T/C [29] of 26.4% and a viability, T/C [30] of 23.4%. The viability, T/C [31] was 81.5%, the viability, T/C [32] was 60.3% and the viability, T/C [33] was 39.3%. It also gave a viability, T/C [34] of 42.4%, a viability, T/C [35] of 31.4% and a viability, T/C [36] of 23.9%.
